Results published in patent US10219516B2, “Molecules having pesticidal utility, and intermediates, compositions, and processes, related thereto” (priority 2015, dated 2019).
Read-outs that look alike come from different tables or passages of the source.

Key:
Type in all cases: in vivo
[1] = system: Cabbage Looper (Trichoplusia ni, TRIPNI); assay: Bioassay on Cabbage Looper (CL), 128-well diet tray assay; details: Trichoplusia ni
Method in brief: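 Test molecule is dissolved in 90:10 acetone-water and applied at 50 μg/cm^2 onto artificial diet, then dried. One to five second-instar larvae go into each of eight wells. Trays, sealed but vented, stay at 25° C., 14:10 light-dark, five to seven days, after which mortality is averaged.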

[2] = system: Beet Armyworm (Spodoptera exigua, LAPHEG); assay: Bioassay on Beet Armyworm (BAW), 128-well diet tray assay
Method in brief: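 Diet tray, 8 wells/compound; 50 μg/cm^2 applied to diet surface (90:10 acetone-water), dried. 1–5 L2 larvae/well; 25° C., 14:10 L:D, 5–7 d. Read-out: % mortality, mean of 8 wells.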

[3] = system: Yellow Fever Mosquito (Aedes aegypti, AEDSAE); assay: Bioassay on Yellow Fever Mosquito (YFM), 96-well plate larval assay; details: for YFM (Biological Results, rating): Species YFM (Yellow Fever Mosquito); for YFM rating: Yellow Fever Mosquito, 96-well plate larval assay
Method in brief: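 Compound stocks at 4000 ppm in DMSO were diluted with 90:10 water/acetone, and 15 μL aliquots were dispensed into six replicate plates. About 1-day-old larvae in liver-powder water were added per well. Plates were covered and held at room temperature for 3 days before each well was scored for mortality.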

[4] = Species CL (Cabbage Looper), read-out: CL (Biological Results, rating)
[5] = Species BAW (Beet Armyworm), read-out: BAW (Biological Results, rating)
[6] = Cabbage Looper, 128-well diet tray assay, read-out: CL rating
[7] = Beet Armyworm, 128-well diet tray assay, read-out: BAW rating

Compound | pest or weed control at 50 µg/cm2 [1, 4] | pest or weed control at 50 µg/cm2 [2, 5] | YFM (Biological Results, rating) [3] | pest or weed control at 50 µg/cm2 [1, 6] | pest or weed control at 50 µg/cm2 [2, 7] | YFM rating [3]
Cc1cc(N)ccc1NC(=O)c1cc(NC(=O)[C@@H]2[C@@H](c3cc(Cl)cc(Cl)c3)C2(Cl)Cl)ccc1Cl [F284, N-(4-Amino-2-methylphenyl)-2-chloro-5-((1S,3S)-2,2-dichloro-3-(3,5-dichlorophenyl)cyclopropane-1-carboxamido)benzamide] | 50 to 100% | 50 to 100% | A (80-100) | – | – | –
COc1cc(NC(=O)c2cc(NC(=O)[C@H]3[C@H](c4ccc(F)c(Cl)c4)C3(Cl)Cl)ccc2Cl)ccn1 (relative stereo) [F545, 2-Chloro-5-(trans-2,2-dichloro-3-(3-chloro-4-fluorophenyl)cyclopropane-1-carboxamido)-N-(2-methoxypyridin-4-yl)benzamide] | – | – | – | 50 to 100% | 50 to 100% | A (80-100)
Cc1cc(N)ccc1NC(=O)c1cc(NC(=O)[C@H]2[C@H](c3cc(Cl)c(Cl)c(Cl)c3)C2(Cl)Cl)ccc1Cl (relative stereo) [F227, trans-N-(4-Amino-2-methylphenyl)-2-chloro-5-(2,2-dichloro-3-(3,4,5-trichlorophenyl)cyclopropane-1-carboxamido)benzamide] | 50 to 100% | 50 to 100% | A (80-100) | – | – | –
O=C(Nc1ccc(F)cc1)c1cc(NC(=O)[C@H]2[C@H](c3ccc(Br)c(Cl)c3)C2(Cl)Cl)ccc1Cl (relative stereo) [F270, 5-(trans-3-(4-Bromo-3-chlorophenyl)-2,2-dichlorocyclopropane-1-carboxamido)-2-chloro-N-(4-fluorophenyl)benzamide] | 50 to 100% | 50 to 100% | A (80-100) | – | – | –
C=C(F)c1c(F)cnc(NC(=O)c2cc(NC(=O)[C@H]3[C@H](c4cc(Cl)cc(Cl)c4)C3(Cl)Cl)ccc2Cl)c1F (relative stereo) [F394, 2-Chloro-5-(trans-2,2-dichloro-3-(3,5-dichlorophenyl)cyclopropane-1-carboxamido)-N-(3,5-difluoro-4-(1-fluorovinyl)pyridin-2-yl)benzamide] | – | – | – | 50 to 100% | 50 to 100% | A (80-100)
Nc1cccc(NC(=O)c2cc(NC(=O)[C@H]3[C@H](c4ccc(F)c(Cl)c4)C3(Cl)Cl)ccc2Cl)n1 (relative stereo) [F327, N-(6-Aminopyridin-2-yl)-2-chloro-5-(trans-2,2-dichloro-3-(3-chloro-4-fluorophenyl)cyclopropane-1-carboxamido)benzamide] | 50 to 100% | 50 to 100% | A (80-100) | – | – | –
Nc1c(F)cc(NC(=O)c2cc(NC(=O)[C@H]3[C@H](c4cc(Cl)cc(Cl)c4)C3(Cl)Cl)ccc2Cl)cc1F [F378, N-(4-Amino-3,5-difluorophenyl)-2-chloro-5-((1R,3R)-2,2-dichloro-3-(3,5-dichlorophenyl)cyclopropane-1-carboxamido)benzamide] | – | – | – | 50 to 100% | 50 to 100% | B (More than 0-Less than 80)
Nc1cc(F)cc(NC(=O)c2cc(NC(=O)[C@H]3[C@H](c4cc(Cl)cc(Cl)c4)C3(Cl)Cl)ccc2Cl)c1 [F419, N-(3-Amino-5-fluorophenyl)-2-chloro-5-((1R,3R)-2,2-dichloro-3-(3,5-dichlorophenyl)cyclopropane-1-carboxamido)benzamide] | – | – | – | 50 to 100% | 50 to 100% | B (More than 0-Less than 80)
N#Cc1ccc(NC(=O)c2cc(NC(=O)[C@H]3[C@H](c4cc(Cl)cc(Cl)c4)C3(Cl)Cl)ccc2Cl)cc1C(F)(F)F (relative stereo) [F235, 2-Chloro-N-(4-cyano-3-(trifluoromethyl)phenyl)-5-(trans-2,2-dichloro-3-(3,5-dichlorophenyl)cyclopropane-1-carboxamido)benzamide] | 50 to 100% | 50 to 100% | A (80-100) | – | – | –
Cc1cc(NC(=O)c2cc(NC(=O)[C@H]3[C@H](c4cc(Cl)cc(Cl)c4)C3(Cl)Cl)ccc2Cl)ccc1Cl (relative stereo) [PF113, trans-2-Chloro-N-(4-chloro-3-methylphenyl)-5-(2,2-dichloro-3-(3,5-dichlorophenyl)cyclopropane-1-carboxamido)benzamide] | – | – | – | 50 to 100% | 50 to 100% | A (80-100)
C#Cc1cccc(NC(=O)c2cc(NC(=O)C3C(c4cc(Cl)cc(Cl)c4)C3(Cl)Cl)ccc2Cl)c1 (stereo not drawn) [PF124, 2-Chloro-5-(trans)-2,2-dichloro-3-(3,5-dichlorophenyl)cyclopropane-1-carboxamido)-N-(3-ethynylphenyl)benzamide] | – | – | – | 50 to 100% | 50 to 100% | A (80-100)
C=C(F)c1cc([C@H]2[C@H](C(=O)Nc3ccc(Cl)c(C(=O)Nc4ccc(F)cc4F)c3)C2(Cl)Cl)ccc1Cl (relative stereo) [F385, 2-Chloro-5-(trans-2,2-dichloro-3-(4-chloro-3-(1-fluorovinyl)phenyl)cyclopropane-1-carboxamido)-N-(2,4-difluorophenyl)benzamide] | – | – | – | 50 to 100% | 50 to 100% | A (80-100)
N#Cc1cc(C(F)(F)F)ccc1NC(=O)c1cc(NC(=O)[C@H]2[C@H](c3cc(Cl)cc(Cl)c3)C2(Cl)Cl)ccc1Cl (relative stereo) [F232, 2-Chloro-N-(2-cyano-4-(trifluoromethyl)phenyl)-5-(trans-2,2-dichloro-3-(3,5-dichlorophenyl)cyclopropane-1-carboxamido)benzamide] | 50 to 100% | 50 to 100% | A (80-100) | – | – | –
O=C(Nc1ccc(I)c(F)c1)c1cc(NC(=O)[C@H]2[C@H](c3cc(Cl)cc(Cl)c3)C2(Cl)Cl)ccc1Cl (relative stereo) [F204, trans-2-Chloro-5-(2,2-dichloro-3-(3,5-dichlorophenyl)cyclopropane-1-carboxamido)-N-(3-fluoro-4-iodophenyl)benzamide] | 50 to 100% | 50 to 100% | A (80-100) | – | – | –
O=C(Nc1nc2ccc(F)cc2s1)c1cc(NC(=O)C2C(c3cc(Cl)cc(Cl)c3)C2(Cl)Cl)ccc1Cl (stereo not drawn) [F445, 2-Chloro-5-(trans)-2,2-dichloro-3-(3,5-dichlorophenyl)cyclopropane-1-carboxamido)-N-(6-fluorobenzo[d]thiazol-2-yl)benzamide] | – | – | – | 50 to 100% | 50 to 100% | B (More than 0-Less than 80)
Cc1cc(/N=C/c2ccc(Cl)cc2)ccc1NC(=O)c1cc(NC(=O)C2C(c3cc(Cl)cc(Cl)c3)C2(Cl)Cl)ccc1Cl (stereo not drawn) [F510] | – | – | – | 50 to 100% | 50 to 100% | A (80-100)
CN(C(=O)c1cc(NC(=O)[C@H]2[C@H](c3ccc(Cl)c(C(F)F)c3)C2(Cl)Cl)ccc1Cl)c1ccc(F)cc1 (relative stereo) [F593, 2-Chloro-5-(trans-2,2-dichloro-3-(4-chloro-3-(difluoromethyl)phenyl)cyclopropane-1-carboxamido)-N-(4-fluorophenyl)-N-methylbenzamide] | – | – | – | 50 to 100% | 50 to 100% | A (80-100)
